Measured values published in patent US10906900B2, “Compounds for using in imaging and particularly for the diagnosis of neurodegenerative diseases” (CENTRE NATIONAL DE LA RECHERCHE SCIENTIFIQUE, priority 2016, dated 2021).

What was measured:
[1] = In vivo evaluation of fluorine-18-labelled tracer: PET/CT and tissue radioactivity (BBB crossing, bone fixation); settings: healthy adult male Wistar rat, intravenous injection of 18F tracer
Protocol: The objective is to determine whether the tracer has the blood-brain barrier (BBB) crossing properties in sufficient quantities to be used as a PET imaging tracer. In addition, bone fixation can be qualified, which reflects the degree of defluorination of the tracer in vivo.
Animal Model: Adult male rats of Wistar strain.
In vivo study: the healthy animal receives an intravenous injection of the tracer test (molecule 28).
From the moment of injection, imaging is carried out using a dedicated system (PET/CT) which records the intracerebral accumulation of radioactivity (Sérrière et al. Nucl. Med. Biol. 2014, 41:103-13; Sérrière et al. Neurobiol. Aging 2015, 36:1639-52). At the end of the imaging, the animal is euthanized; the brain and a bone fragment (femur) are collected, weighed and their radioactivity is measured. This method allows to precisely quantify the accumulation of the tracer in the tissues. The results are expressed as a percentage of the injected tracer dose/g of tissue (% DI/g).

Tau fibers = Tau fibers (Homo sapiens (Human), UniProt P10636); test: In vitro direct determination of Kd and Bmax by fluorescence, Tau fibers; format: binding
Protocol: Human Tau protein (isoform h2N4RTau) is expressed in the vector pET11d in E. Coli (strain BL21 (DE3), (Stratagene, La Jolla, Calif.)) and purified according to the described method (Barghorn S, Biernat J, Mandelkow E. (2005) Methods Mol Biol. 299:35-51). The Tau purified concentration is determined by measuring the absorbance at 280 nm using a molar extinction coefficient of 7450 M^−1 cm^−1.
Tau protein in PBS buffer containing 1 mM DTT is assembled into fiber in the presence of one twelfth of a molar equivalent of heparin at 37° C. under stirring.
(§1) Fresh solutions of each test compound (2.5 mM in DMSO) are diluted in PBS pH=7.4 at concentrations between 0.5 nM and 5 μM in the presence or absence of α-syn (200 nM), Aβ1-42 (500 nM) or Tau (200 nM) fibers in a final 2 mL volume. After 1 h of incubation at RT, the binding of each compound to α-syn, A131-42 or Tau fibers is measured by fluorescence using the spectral changes of the compounds during their binding to the fibers, using the appropriate excitation/emission wavelengths (those giving the highest fluorescence variation during binding to the fibres). For each concentration of compound added to the fibres, the bound and free fractions are measured by fluorescence according to the following equation: Fm=FBB+FF×(T−B)
Where Fm is the fluorescence measured in the presence of fibers at a concentration T of the compound added to the fibers, FB is the specific fluorescence of the bound compound, FF is the specific fluorescence of the free compound, and B is the concentration of the fiber bound compound at a given concentration T (Bell, J. E., “Fluorescence; Solution Studies”, Spectrometry in Biochemistry, vol. I, Bell, J. E., ed., CRC Press, Inc., Boca Raton, Fla., pp. 155-194 (1981)).
(§2) The value of FF is determined by measuring the fluorescence of known concentrations of compounds in the absence of fibres. The FB value is determined by measuring the maximum fluorescence of known concentrations of compounds in the presence of saturated concentrations of α-syn, Aβ1-42, or Tau fibers.
Thus, at each point, the concentration of bound compound B is determined according to the following equation: B=(Fm−FF×T)/(FB−FF)
(§3) The values of B thus determined versus the concentrations of the free fractions (T-B) are analyzed according to the Michaelis-Menten equation. The affinity (Kd) and density of binding sites within the fibers of α-syn, Aβ1-42 or Tau (Bmax) are determined by Scatchard analysis, which also makes it possible to highlight multiple site classes.

Aβ1-42 fibers [2] = test: In vitro direct determination of Kd and Bmax by fluorescence, Aβ1-42 fibers; format: binding; settings: selective = good affinity and at least two times greater than for at least one of the two other proteins
Protocol: (§4) To obtain fiber assembly, α-syn is incubated in Tris-HCl 50 mM pH7.5, KCl 150 mM at 37° C. under continuous agitation during 4 days. The lyophilized Aβ1-42 was dissolved in 1,1,1,3,3,3-Hexafluoro-2-propanol (HFIP) at 0.2 mg/mL and incubated for 24 h at 37° C. to obtain the complete solubilization. The HFIP is evaporated under nitrogen stream to obtain a dry product. To start the fiber assembly, the dry peptide is resuspended in PBS pH7.4, 10% (v/v) DMSO and incubated at 37° C. for 3 days without agitation.
as §1, §2, §3

Aβ1-42 fibers [3] = target: Aβ1-42 fibers (Homo sapiens, UniProt P05067); test: as above; format: binding
Protocol: as §4, §1, §2, §3

α-syn fibers = α-syn fibers (Homo sapiens (Human), UniProt P37840); test: In vitro direct determination of Kd and Bmax by fluorescence, α-syn fibers; format: binding
Protocol: as §4, §1, §2, §3

[4] = density of binding sites, direct fluorescence, Scatchard analysis

Chain of Tau fibers (P10636 other isoform, or with tags, fused parts or gaps): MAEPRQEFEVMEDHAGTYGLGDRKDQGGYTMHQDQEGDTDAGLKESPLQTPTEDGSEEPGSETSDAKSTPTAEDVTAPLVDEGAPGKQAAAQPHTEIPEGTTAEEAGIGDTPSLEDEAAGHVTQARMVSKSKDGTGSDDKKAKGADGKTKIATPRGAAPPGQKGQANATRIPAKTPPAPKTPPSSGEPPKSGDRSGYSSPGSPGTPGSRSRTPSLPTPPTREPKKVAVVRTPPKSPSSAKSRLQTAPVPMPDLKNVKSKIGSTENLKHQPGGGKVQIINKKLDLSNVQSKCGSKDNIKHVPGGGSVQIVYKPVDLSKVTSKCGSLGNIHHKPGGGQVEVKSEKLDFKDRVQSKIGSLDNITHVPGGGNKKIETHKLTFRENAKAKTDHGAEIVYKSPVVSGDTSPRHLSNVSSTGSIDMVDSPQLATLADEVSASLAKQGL
Chain of Aβ1-42 fibers (Homo sapiens, UniProt P05067) (P05067 672-713 limits assumed): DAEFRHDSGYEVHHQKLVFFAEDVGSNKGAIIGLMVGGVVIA

Which “Passing of the BBB: brain accumulation, percentage of injected tracer dose/g of tissue” value ([1]; brain collected at end of imaging) does the source give for `CN(CCF)c1ccc(C#Cc2cc3cccnc3[nH]2)cc1` [Compound 28, 4-((1H-Pyrrolo[2,3-b]pyridin-2-yl)ethynyl)-N-(2-fluoroethyl)-N-methylaniline] here?
The value was “≈ 0.4 % DI/g”.

What about the “binding to bone: femur accumulation, percentage of injected tracer dose/g of tissue” value ([1]; femur at end of imaging, reflects defluorination) of the same compound?
Its value is 0.3 % DI/g.

And the “Tau Bmax1” value (Tau fibers; [4])?
The value was 46.5 ± 5 nmol/μmol prot.

And the Kd (Tau fibers; direct fluorescence, Scatchard analysis, Tau fibers 200 nM, read-out: Tau Kd1)?
Its Kd is 0.97 ± 0.4 nM.

What about the “Tau Bmax1 (number of sites/monomer)” value (Tau fibers; in brackets in the Bmax cell) of the same compound?
The value was 1/20.

What about the “Tau selectivity according to analysis of Kd (Tables 6 and 7)” value (Tau fibers; selective = good affinity and at least two times greater than for at least one of the two other proteins) of the same compound?
Its value is “selective”.

And the “Aβ selectivity according to analysis of Kd (Tables 6 and 7)” value (Aβ1-42 fibers [2])?
The value was “selective”.

And the “Aβ Bmax1” value (Aβ1-42 fibers [3]; [4])?
The value was 1.8 ± 0.6 nmol/μmol prot.

What about the Kd (Aβ1-42 fibers [3]; direct fluorescence, Scatchard analysis, Aβ1-42 fibers 500 nM, read-out: Aβ Kd1) of the same compound?
The Kd was 1.2 ± 1 nM.

And the “Aβ Bmax1 (number of sites/monomer)” value (Aβ1-42 fibers [3]; in brackets in the Bmax cell)?
The value was 1/600.

What about the “αsyn Bmax1” value (α-syn fibers; [4]) of the same compound?
The value was 141.5 ± 45 nmol/μmol prot.

What about the Kd (α-syn fibers; direct fluorescence, Scatchard analysis, α-syn fibers 200 nM, read-out: αsyn Kd1) of the same compound?
Its Kd is 2.4 ± 1 nM.

What about the “αsyn Bmax1 (number of sites/monomer)” value (α-syn fibers; in brackets in the Bmax cell) of the same compound?
Its value is 1/7.
